Legend:
Assay type in all cases: cell-based, human
TLOs [1] = assay: CHIR withdrawal from TLOs cultured in CK-DCI; details: 1 to 5 days after withdrawal of CHIR; Ki67, cCASP3, AT2 marker RT-PCR
Experimental: As removing WNT signaling has been reported to induce AT2 maturation in alveolospheres,^26,27 we withdrew CHIR.
Matrigel embedded lung organoids can be used for TLO generation when they reach d42 of development. Media was removed from the transwell and 1 ml of 2 mg/ml dispase (Corning) was added to release lung organoid from the Matrigel for 30-45 minutes in normoxic incubator. The organoid was transferred to a 15 ml conical tube and washed with stop media (DMEM (Corning), 5% FBS (Atlanta Biologicals; Flowery Branch, Georgia), 1% Glutamax (ThermoFisher)) to neutralize Dispase, then centrifuged at […] for 5 minutes. The pellet was incubated with 1 ml of 0.05% Trypsin/EDTA in normoxic incubator for 10-12 minutes with occasional pipetting with a P1000 pipet tip. Single cell dissociation was verified using a bright field microscope. If a single cell suspension was not obtained after 12 minutes, cells were washed with stop media and incubated for additional 5 minutes with 0.05% Trypsin/EDTA. Cells were counted using a hemocytometer and 400 cells/μl of undiluted Matrigel were plated in a well of a 12-well non-tissue culture plate. […]

TLOs [2] = assay: Distal differentiation of TLOs (removal of CHIR and KGF, TGF-b blockade with SB); details: removing CHIR and KGF and blocking TGF-b signaling using SB (DCI+SB)
Experimental: We next used empirical approaches to differentiate the cells into more mature proximal of distal lineages.
(§1) Total RNA was extracted according to manufacturer's instructions using the Direct-zol™ RNA Microprep (Zymo Research, Irvine, CA), and 500 ng of total RNA was reverse transcribed using the qScript™ XLT cDNA SuperMix (Quantabio, Beverly, MA). Technical triplicates of […] reaction (for use in Applied Biosystems QuantStudio7 384-well System, Waltham, MA) were prepared with 3 μl of diluted cDNA and run for 40 cycles. Relative gene expression was calculated based on the average cycle (Ct) value, normalized to GAPDH as the internal control and reported as fold change (2(−ddCT)).

WT (R2) TLO = assay: ER stress induction by tunicamycin, WT TLOs; details: one week after removal of tunicamycin (5 hour challenge)
Experimental: (§2) We challenged for 5 hours with tunicamycin, a protein glycosylation inhibitor that prevents protein maturation and causes ER stress.^65 and measured ER stress components after 5 hrs, upon removal tunicamycin, and after 1 week (FIG. 7b). […] Of particular interest is ATF4, as ATF4 is an effector protein implicated not only in the UPR^ER via PERK phosphorylation but also in the integrated stress response (ISR)^66.
as §1

HPS1−/− TLOs [3] = assay: ER stress induction by tunicamycin, HPS1-/- TLOs
Experimental: as §2, §1

ABCA3−/− TLOs = assay: ER stress induction by tunicamycin, ABCA3-/- TLOs; details: one week after removal of tunicamycin; compared with HPS1−/− TLOs
Experimental: as §2, §1

HPS1−/− TLOs [4] = details: one week after removal of tunicamycin
Experimental: as §2

`Cc1c[nH]c(-c2cnc(NCCNc3ccc(C#N)cn3)nc2-c2ccc(Cl)cc2Cl)n1` [CHIR, CHIR99021] was tested, and the “effect of CHIR withdrawal on TLOs” value (TLOs [1]) was “disintegration, proliferation arrest (FIG. 3b), apoptosis (FIG. 3c) and loss of AT2 markers”.

`NC(=O)c1ccc(-c2nc(-c3ccc4c(c3)OCO4)c(-c3ccccn3)[nH]2)cc1` [SB, SB431542] was tested, and the “expression of AT2 and AT1 markers” value (TLOs [2]) was “further upregulation of not only AT2, but also of AT1 markers”.

In the case of tunicamycin, the “expression of ER stress mediators (XBP1, BIP, CHOP, ATF4)” value (WT (R2) TLO) is reported as “expression of BIP, CHOP and ATF4 were strikingly increased”, the “expression of ER stress mediators (BIP, XBP1 splicing)” value (HPS1−/− TLOs [3]; after 5 hrs tunicamycin challenge) is reported as “significantly increased expression of BIP and of XBP1 splicing” and the “expression of ER stress mediators (XBP1 splicing, CHOP, ATF4)” value (HPS1−/− TLOs [3]; one week after removal of tunicamycin (5 hour challenge)) is reported as “maintained elevated splicing of XBP1 but entirely failed to upregulate CHOP and ATF4”. For the same compound, the “expression of ER stress mediators” value (ABCA3−/− TLOs) was “A similar response, though less pronounced” and the apoptosis (HPS1−/− TLOs [4]) was “increased apoptosis”.
